Source: article PMC9145193 (Molecules, 2022)

Target: T1, AChE enzyme from electrophorus electricus (eeAChE) (Electrophorus electricus, UniProt O42275)
T1 construct: purchased Merck C3389
Test: biochemical
Settings: mean ± SEM from three independent experiments
Experimental: Donepezil was used as a positive control.
AChE activity was measured by the […] using AChE enzyme from electrophorus electricus (eeAChE) (C3389, Merck, Kenilworth, NJ, USA). AChE solution (2 U/mL) was prepared with 0.1 M phosphate buffer (pH 8.0) firstly. Varied concentrations of test compounds (20 μL), 1 mM 5′-dithiobis (2-nitrobenzoic acid) (DTNB) solution (100 μL), and AChE solution (40 μL) were added in order to each well of a 96-well plate. After incubation for 15 min at 37 °C, the reaction was initiated by adding 20 μL of acetylthiocholine iodide (1 mM) to the mixed solution. The absorbance of each plate was instantly measured at 405 nm using a microplate reader. The inhibition of each compound was estimated using the formula (1−Ai/Ac) × 100, where Ai and Ac represent the absorbance of AChE in the presence and absence of inhibitors, respectively. Each experiment was replicated three times. Plotting curves of log concentration via percentage of inhibition, the IC50 values of all tested compounds were graphically analyzed (Graph Pad Prism 8.0).

T1 sequence (O42275 24-633): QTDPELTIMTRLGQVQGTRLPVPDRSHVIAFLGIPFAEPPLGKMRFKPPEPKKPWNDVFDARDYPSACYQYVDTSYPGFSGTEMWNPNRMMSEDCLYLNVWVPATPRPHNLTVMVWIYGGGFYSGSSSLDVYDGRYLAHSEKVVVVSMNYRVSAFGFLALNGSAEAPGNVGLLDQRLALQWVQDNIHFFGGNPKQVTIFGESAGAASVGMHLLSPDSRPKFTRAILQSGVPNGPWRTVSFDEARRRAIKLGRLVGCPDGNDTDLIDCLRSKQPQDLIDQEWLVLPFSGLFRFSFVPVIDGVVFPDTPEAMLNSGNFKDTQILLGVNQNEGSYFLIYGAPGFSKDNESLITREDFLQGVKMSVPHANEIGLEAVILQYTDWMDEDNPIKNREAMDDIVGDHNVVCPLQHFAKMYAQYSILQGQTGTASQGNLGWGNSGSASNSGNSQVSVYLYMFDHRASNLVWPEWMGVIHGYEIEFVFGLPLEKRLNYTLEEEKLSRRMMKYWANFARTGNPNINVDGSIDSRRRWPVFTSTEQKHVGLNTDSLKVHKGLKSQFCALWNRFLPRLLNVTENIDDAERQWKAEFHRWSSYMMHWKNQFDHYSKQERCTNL

SMILES | IC50 [nM]
COc1cc2c(cc1OC)C(=O)/C(=C/c1cc[n+](Cc3ccccc3Cl)cc1C(N)=O)OC2 [13e, (Z)-3-Carbamoyl-1-(2-chlorobenzyl)-4-((6,7-dimethoxy-4-oxoisochroman-3-ylidene)methyl)pyridin-1-ium Bromide] | 17.6 ± 0.3
COc1cc2c(cc1OC)C(=O)/C(=C/c1cc[n+](Cc3ccc(C)cc3)cc1C(C)=O)OC2 [10m, (Z)-3-Acetyl-4-((6,7-dimethoxy-4-oxoisochroman-3-ylidene)methyl)-1-(4-methylbenzyl)pyridin-1-ium Bromide] | 54.1 ± 3.22
COc1cc2c(cc1OC)C(=O)/C(=C/c1cc[n+](Cc3cccc([N+](=O)[O-])c3)cc1C(C)=O)OC2 [10o, (Z)-3-Acetyl-4-((6,7-dimethoxy-4-oxoisochroman-3-ylidene)methyl)-1-(3-nitrobenzyl)pyridin-1-ium Bromide] | 22.4 ± 1.25
COc1cc2c(cc1OC)C(=O)/C(=C/c1cc[n+](Cc3ccccc3)cc1C(N)=O)OC2 [13a, (Z)-1-Benzyl-3-carbamoyl-4-((6,7-dimethoxy-4-oxoisochroman-3-ylidene)methyl)pyridin-1-ium Bromide] | 8.63 ± 0.06
COc1cc2c(cc1OC)C(=O)/C(=C/c1cc[n+](Cc3ccccc3C(F)(F)F)cc1C(C)=O)OC2 [10q, (Z)-3-Acetyl-4-((6,7-dimethoxy-4-oxoisochroman-3-ylidene)methyl)-1-(2-(trifluoromethyl)benzyl)pyridin-1-ium Bromide] | 18.9 ± 1.16
COc1cc2c(cc1OC)C(=O)/C(=C/c1cc[n+](Cc3ccc(F)cc3)cc1C(C)=O)OC2 [10d, (Z)-3-Acetyl-4-((6,7-dimethoxy-4-oxoisochroman-3-ylidene)methyl)-1-(4-fluorobenzyl)pyridin-1-ium Bromide] | 7.69 ± 0.35
COc1cc2c(cc1OC)C(=O)/C(=C/c1cc[n+](Cc3ccccc3Br)cc1C(N)=O)OC2 [13h, (Z)-1-(2-Bromobenzyl)-3-carbamoyl-4-((6,7-dimethoxy-4-oxoisochroman-3-ylidene)methyl)pyridin-1-ium Bromide] | 21.7 ± 0.32
COc1cc2c(cc1OC)C(=O)/C(=C/c1cc[n+](Cc3ccccc3Cl)cc1C(C)=O)OC2 [10e, (Z)-3-Acetyl-1-(2-chlorobenzyl)-4-((6,7-dimethoxy-4-oxoisochroman-3-ylidene)methyl)pyridin-1-ium Bromide] | 5.86 ± 0.86
COc1cc2c(cc1OC)C(=O)/C(=C/c1cc[n+](Cc3ccc(C(F)(F)F)cc3)cc1C(N)=O)OC2 [13p, (Z)-3-Carbamoyl-4-((6,7-dimethoxy-4-oxoisochroman-3-ylidene)methyl)-1-(4-(trifluoromethyl)benzyl)pyridin-1-ium Bromide] | 441 ± 7.82
COc1cc2c(cc1OC)C(=O)/C(=C/c1cc[n+](Cc3cccc(C)c3)cc1C(N)=O)OC2 [13l, (Z)-3-Carbamoyl-4-((6,7-dimethoxy-4-oxoisochroman-3-ylidene)methyl)-1-(3-methylbenzyl)pyridin-1-ium Bromide] | 16.26 ± 0.12
COc1cc2c(cc1OC)C(=O)/C(=C/c1cc[n+](Cc3ccccc3F)cc1C(C)=O)OC2 [10b, (Z)-3-Acetyl-4-((6,7-dimethoxy-4-oxoisochroman-3-ylidene)methyl)-1-(2-fluorobenzyl)pyridin-1-ium Bromide] | 3.32 ± 0.21
COc1cc2c(cc1OC)C(=O)/C(=C/c1cc[n+](Cc3ccc(F)cc3)cc1C(N)=O)OC2 [13d, (Z)-3-Carbamoyl-4-((6,7-dimethoxy-4-oxoisochroman-3-ylidene)methyl)-1-(4-fluorobenzyl)pyridin-1-ium Bromide] | 8.25 ± 0.13
COc1cc2c(cc1OC)C(=O)/C(=C/c1cc[n+](Cc3ccccc3C)cc1C(N)=O)OC2 [13k, (Z)-3-Carbamoyl-4-((6,7-dimethoxy-4-oxoisochroman-3-ylidene)methyl)-1-(2-methylbenzyl)pyridin-1-ium Bromide] | 12.1 ± 0.9
COc1cc2c(cc1OC)C(=O)/C(=C/c1cc[n+](Cc3cccc(Cl)c3)cc1C(N)=O)OC2 [13f, (Z)-3-Carbamoyl-1-(3-chlorobenzyl)-4-((6,7-dimethoxy-4-oxoisochroman-3-ylidene)methyl)pyridin-1-ium Bromide] | 26.7 ± 0.28
